In paper PMC3388080 (PLoS ONE, 2012):
Where two headings read alike, the source gives them in different places.

Experiments:
[1] = target: T1, rHCRTR2 (Rattus norvegicus, UniProt P56719); experiment: Inhibition of [^3H]almorexant binding to HEK293-rHCRTR2 membranes
T1 construct: expressed in transfected cells; host or cells: HEK293 (transient transfection, pCI-Neo vector), membrane preparation
Source text: (§1) The rat cDNAs encoding HCRTR1 (Accession No. P56718) and HCRTR2 (Accession No. P56719) were subcloned into pCI-Neo expression vectors (Promega, Madison, WI) and used to transfect HEK293 cells (acquired commercially from ATCC-LGC, Molsheim, France) as previously described.

[2] = in vivo; settings: rat, in vivo
Protocol: (§2) Pharmacokinetic analyses were performed at F. Hoffmann-La Roche as described in supporting Materials and Methods S1.
(§3) Cmax, maximum concentration; Tmax, time at which maximum concentration was observed; AUC, area under the plasma concentration vs. time curve; CL, clearance; Vss, volume of distribution at steady state; T1/2, terminal half-life; F, bioavailability; Fu, Fraction unbound. Plasma values are mean, n=2.

[3] = target: T2, HCRTR1 (Rattus norvegicus, UniProt P56718); parameters: method as in PMID 19363060; settings: subcutaneous 30 mg/kg; tenia tecta; cited from earlier work
T2 construct: from tissue; host or cells: coronal brain sections of male Sprague-Dawley rats (locus coeruleus)
T2 sequence (P56718 1-416): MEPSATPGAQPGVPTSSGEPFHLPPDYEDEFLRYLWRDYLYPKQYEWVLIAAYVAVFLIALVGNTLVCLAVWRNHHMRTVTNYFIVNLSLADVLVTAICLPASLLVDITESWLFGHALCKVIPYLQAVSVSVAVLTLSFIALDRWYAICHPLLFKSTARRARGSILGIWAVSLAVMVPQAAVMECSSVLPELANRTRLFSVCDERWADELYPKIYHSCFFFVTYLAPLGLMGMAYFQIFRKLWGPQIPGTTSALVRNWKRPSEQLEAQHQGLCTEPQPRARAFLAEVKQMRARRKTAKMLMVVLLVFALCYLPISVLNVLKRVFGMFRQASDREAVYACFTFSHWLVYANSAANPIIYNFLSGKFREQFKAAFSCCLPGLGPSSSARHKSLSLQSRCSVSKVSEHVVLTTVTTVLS

[4] = in vitro; settings: human, plasma
Protocol: as §2

[5] = target: T3, rHCRTR1 (Rattus norvegicus, UniProt P56718); parameters: method as in PMID 14691055; settings: cited from earlier work
T3 construct: expressed in transfected cells; host or cells: HEK293 (transient transfection, pCI-Neo vector), membrane preparation
T3 sequence (P56718 1-416): T2 sequence (P56718 1-416)

[6] = in vitro; settings: rat, plasma
Protocol: as §2, §3

[7] = Stability in human plasma
Protocol: as §2

[8] = Stability in rat plasma
Protocol: as §2

[9] = target: T3, rHCRTR1; experiment: Inhibition of [^3H]almorexant binding to HEK293-rHCRTR1 membranes; settings: read-out: Ki
Source text: as §1

[10] = parameters: method as in PMID 19363060; settings: 30 mg/kg, cited from earlier work

T1 sequence (P56719 whole entry): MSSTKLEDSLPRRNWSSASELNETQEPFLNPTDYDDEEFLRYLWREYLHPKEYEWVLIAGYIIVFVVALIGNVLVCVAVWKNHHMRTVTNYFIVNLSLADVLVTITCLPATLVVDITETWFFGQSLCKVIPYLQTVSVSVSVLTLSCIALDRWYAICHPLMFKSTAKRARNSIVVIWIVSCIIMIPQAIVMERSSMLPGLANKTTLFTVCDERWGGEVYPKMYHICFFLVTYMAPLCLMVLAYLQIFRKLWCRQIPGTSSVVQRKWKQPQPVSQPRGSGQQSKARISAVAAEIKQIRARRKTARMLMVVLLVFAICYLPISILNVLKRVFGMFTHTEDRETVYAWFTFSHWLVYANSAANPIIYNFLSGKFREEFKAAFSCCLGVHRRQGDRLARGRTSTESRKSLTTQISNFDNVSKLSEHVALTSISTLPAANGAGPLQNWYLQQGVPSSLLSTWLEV

## Cc1cc(NC(=O)Nc2ccc(N(C)C)cc2)c2cc(F)cc(F)c2n1 [SB-408124, 1-(6,8-difluoro-2-methyl-quinolin-4-yl)-3-(4-dimethylamino-phenyl)-urea]
[1]
  Ki: 5370 ± 2200 nM
[2]; Wistar, iv
  AUC/Dose: 7996.40 ng/h/mL
  Tmax: 0 h
  Vd: 0.2 L/kg
  clearance: 2.1 mL/min/kg
  half-life: 1.12 h
[2]; Wistar, iv, 12.1 mg/kg
  Cmax/Dose: 4738.30 ng/mL
[2]; Wistar, po
  AUC/Dose: 3455.70 ng/h/mL
  Tmax: 2.67 h
  bioavailability: 43.2%
  half-life: 1.95 h
[2]; Wistar, po, 18.16 mg/kg
  Cmax/Dose: 704.8 ng/mL
[2]
  Vss (in words): low
  systemic plasma clearance (in words): low
[2]; po
  oral bioavailability (in words): medium
[3]
  HCRTR1 occupancy: 90%
[4]
  fraction unbound: 0.003
[5]
  Ki: 26.9 nM
[6]
  fraction unbound: < 0.001
[7]; 1 h
  stability in plasma: 94%
[7]; 4 h
  stability in plasma: 88%
[8]; 1 h
  stability in plasma: 101%
[8]; 4 h
  stability in plasma: 107%
[9]
  Ki: 45.7 ± 4.1 nM
[10]; calculated from Cmax values
  brain-to-plasma ratio: 0.012
[10]; read-out: plasma Cmax
  Cmax: 84.3 µM
